7 compounds from patent US20090220566A1, “BIOIMPLANTS FOR USE IN TISSUE GROWTH” (priority 2006, published 2009) can be followed below.

For this series, the system named is tissue ingrowth, specifically angiogenesis and vascularization. To be noted: for conclusion on stimulation of wound healing: selenium at 0.25 ng/mm^3 of the implant, cobalt at 0.45 ng per mm^3 of the implant; for wound tissue / tissue ingrowth in the pores (histological sections): 3 μl per half implant of 70 μM salt in Hank's balanced salt solution on the closed pore. The procedure: Brushite and hydroxyapatite cuboid bioimplants (434±4 mg dry weight) with a 2D branched structure (Y-shape pore) were produced by cement printing following a method previously developed (Hölzel, 2005). The pore was 1.31 mm diameter and open in the middle of one smaller face and decreased in diameter to 1 mm as it branched in the centre of the block. One branch emerged on an adjacent face while the other was a ‘blind’ closed pore. 5 μl of 70 μM copper sulphate solution was deposited at the end of the blind closed pore of the Y as represented in FIG. 2B. This solution thus contained a total of […] of copper sulphate, i.e. 22 ng of copper ions. It was absorbed onto a small localised volume ca 5 mm^3, of the implant of dimensions 8×8×4 mm, (approximately 250 mm^3). This copper thus represented 88 ng per cm^3.
Brushite and hydroxyapatite materials were implanted in animals for 15 days in order to observe tissue ingrowth, specifically angiogenesis and vascularization. In order to facilitate observation of tissue ingrowth the implants were made in two mirror image halves that keyed into one another and split the pore cavity along its symmetrical axis (FIG. 2). A 5 μl solution of copper sulfate at low concentration (0.07 mM) was deposited at the end of the closed pore, dried, and implanted in the abdominal cavity (i.e., intraperitoneally) in mice for 15 days. The retrieved implants were opened and examined for tissue ingrowth (FIG. 2C). […] This is in comparison to control implants with no adsorption of copper (FIG. 2D).
Similar to the implants with copper as described above, solutions (3 μl per half implant) of manganese chloride, sodium selenium, silver nitrate, zinc chloride, and cobalt chloride diluted in Hank's balanced salt solution (vehicle) were adsorbed on the closed pore on each half. They were used respectively at 70 μM. The final amounts of the metals ranged from 10 to 200 ng per implant. These conditions were compared to vehicle (HBBS) as control and copper (70 μM)
After 15 days of implantation in peritoneal site in mice, the implants were retrieved and histological sections of the tissue ingrowth in the pores were processed.

Setting [1] is: 3 μl per half implant of 70 μM salt on the closed pore, 15 days peritoneal site in mice.
Setting [2] is: 15 days peritoneal site in mice.

Turning to `[Cl][Co][Cl]` [cobalt, cobalt chloride], the “conclusion on stimulation of wound healing” value is “enhances particularly blood vessel formation”. The microvessels by histology result under setting [1] is on record as “microvessels with transgression of inflammatory cells were observed”.
Regarding `O=S(=O)([O-])[O-].[Cu+2]` [copper sulfate], where the note is “mouse, in vivo”, the blood vessels observed result is “No blood vessels were observed”, the “concentrations of copper suitable to encourage endothelial cell growth into a 1.3 mm diameter pore opening at the surface of an implant” value was “below 20 μg/mm^3”, the “mean blood vessel in-growth distance” value worked out at 4.3 mm and the “mean distance over which blood vessels were observed to grow from the large pore opening to the closed pore end” value is reported as “nearly the entire length”. For the setting “mouse, in vivo”, the “tissue infiltrating the pore” value was “tissue rich in leukocytes and dead cells”; the “tissue ingrowth in the pores” value is recorded as “vascular tissue”.
For the compound `O=[Se]([O-])[O-].[Na+].[Na+]` [selenium, sodium selenium], the “conclusion on stimulation of wound healing” value is recorded as “may enhance tissue maturation”. The “wound tissue / tissue ingrowth in the pores (histological sections)” value under setting [2] is given as “immature wound tissue”. Also, the “orientation of tissue ingrowth towards the closed (loaded) pore” value (“orientation” for short) under setting [1] is “oriented towards the closed pore”.
Regarding `O=[N+]([O-])[O-].[Ag+]` [silver, silver nitrate], under setting [1], the “orientation” value is reported as “no orientation towards the closed pore”.
In the case of `[Cl-].[Cl-].[Zn+2]` [zinc, zinc chloride], the “orientation” value under setting [1] is on record as “no orientation towards the closed pore”.
Regarding VEGF, where the note is “mouse, in vivo”, the “mean blood vessel in-growth distance” value was 3.7 mm and the “mean distance over which blood vessels were observed to grow from the large pore opening to the closed pore end” value is “nearly the entire length”.
Take manganese chloride: the “wound tissue / tissue ingrowth in the pores (histological sections)” value under setting [2] is “a bloody tissue was formed in the pores”.
